Measurements as given in patent publication US11103684B2, “Systems, devices, and methods for treating a pulmonary disorder with an agent” (Holaira, Inc., priority 2013, dated 2021).
Converted amounts (≈) assume the structure as drawn. Where a name gives a salt, the structure may show the parent alone. Read-outs that look alike come from different tables or passages of the source.

How the values were obtained:
physchem = settings: water
[1] = Solubility levels of various agents in water; settings: for Extent (of solubility): US Pharmacopea scale, part of solvent per part of solute; for Part H20/part solute / Solubility in Water: water; for Solubility in Water: from mg/L and MW
[2] = cited from earlier work

| solubility (physchem; Solubility in Water (mol/L)) [mM] | Extent (of solubility) [1] | Part H20/part solute [1] | Solubility in Water [1] [mM] | Compound | further results |
| --- | --- | --- | --- | --- | --- |
| 18.6 (≈ 4390 µg/mL) |  |  |  | CCN(CC)CCNC(=O)c1ccc(N)cc1 [Procainamide] |  |
|  | very slightly soluble (1000 to 10000) | 6720 | 8.333 (≈ 2400 µg/mL) | CCCCN1CCCCC1C(=O)Nc1c(C)cccc1C (centres unmarked) [Bupivicaine] |  |
|  | insoluble (>10000) | 266388.8889 | 0.2102 (≈ 57.7 µg/mL) | CCCN1CCCC[C@H]1C(=O)Nc1c(C)cccc1C [Ropivacaine] | Solubility in Water [2]: 0.0576 mg/mL (≈ 210 µM) |

The next lines start with the compound.

| Compound | solubility (physchem; Solubility in Water (mol/L)) [mM] | Extent (of solubility) [1] | Part H20/part solute [1] | Solubility in Water [1] [mM] | further results |
| --- | --- | --- | --- | --- | --- |
| [N]=O [Nitric Oxide] |  |  |  |  | solubility (physchem): 2.85 mM (≈ 85.4 µg/mL) |
| Cc1cccc(C)c1NC(=O)C(C)N (centres unmarked) [Tocainide] | 55.7 (≈ 10700 µg/mL) |  |  |  |  |
| CCCN1CCCC[C@H]1C(=O)Nc1c(C)cccc1C [Ropivacaine HCL] |  |  |  |  | Solubility in Water ([2]; HCL): 53.8 mg/mL; Extent (of solubility) ([1]; HCL): slightly soluble (100 to 1000); Part H20/part solute ([1]; HCL): 342.5; Solubility in Water ([1]; HCL): 163.5 mM |
